{
  "source": "patent US8933113B2",
  "about": "(Merck Sharp & Dohme Corp., priority 2011, dated 2015)",
  "note": "pIC50: −log10 of the molar value.",
  "data": [
    {"target": "T1, full-length human Mineralocorticoid Receptor (MR) (Homo sapiens, UniProt P08235)", "T1 construct": "host or cells: PathHunter CHO-K1 cells", "T1 sequence (P08235 1-984)": "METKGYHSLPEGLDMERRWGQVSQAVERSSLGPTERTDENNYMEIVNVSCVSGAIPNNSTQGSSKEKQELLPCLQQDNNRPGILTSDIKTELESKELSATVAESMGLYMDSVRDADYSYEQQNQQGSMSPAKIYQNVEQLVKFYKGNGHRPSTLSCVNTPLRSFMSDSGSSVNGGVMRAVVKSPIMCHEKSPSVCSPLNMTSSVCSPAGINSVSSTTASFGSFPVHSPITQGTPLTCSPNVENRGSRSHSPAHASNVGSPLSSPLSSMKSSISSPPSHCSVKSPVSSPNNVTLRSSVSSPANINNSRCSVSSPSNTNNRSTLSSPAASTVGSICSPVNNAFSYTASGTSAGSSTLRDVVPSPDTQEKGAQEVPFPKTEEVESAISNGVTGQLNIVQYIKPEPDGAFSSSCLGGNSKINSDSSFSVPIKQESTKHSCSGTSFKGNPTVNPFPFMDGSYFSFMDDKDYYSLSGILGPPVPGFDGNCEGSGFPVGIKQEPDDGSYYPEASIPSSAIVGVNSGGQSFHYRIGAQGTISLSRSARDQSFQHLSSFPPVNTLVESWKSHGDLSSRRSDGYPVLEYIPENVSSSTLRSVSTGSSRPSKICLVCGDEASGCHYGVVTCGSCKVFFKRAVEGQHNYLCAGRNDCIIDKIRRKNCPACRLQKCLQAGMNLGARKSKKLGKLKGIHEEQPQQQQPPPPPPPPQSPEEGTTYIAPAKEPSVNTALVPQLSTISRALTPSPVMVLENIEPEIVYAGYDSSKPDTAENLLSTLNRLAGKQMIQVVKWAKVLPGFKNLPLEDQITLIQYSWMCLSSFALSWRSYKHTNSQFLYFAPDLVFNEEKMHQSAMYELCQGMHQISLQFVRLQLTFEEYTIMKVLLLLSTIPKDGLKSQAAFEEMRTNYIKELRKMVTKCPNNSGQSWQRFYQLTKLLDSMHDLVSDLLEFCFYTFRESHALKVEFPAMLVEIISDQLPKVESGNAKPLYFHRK", "assay": "human MR NH Pro assay (PathHunter Protein:Protein interaction assay), MR antagonist activity", "format": "cell-based", "conditions": "not given", "text": "(§1) The activity of the compounds of the present invention regarding mineralocorticoid receptor antagonism can be evaluated using the following assay.\n(§2) Assessment of MR Potency in HMR NH Pro Assay\n(§3) The human MR NH Pro assay is a commercially available PathHunter™ Protein:Protein interaction assay (DiscoveRx; http://www.discoverx.com/nhrs/prod-nhrs.php) that measures the ability of compounds to antagonize full-length human Mineralocorticoid Receptor (MR) binding to a coactivator peptide.\n(§4) 6. Test compounds are titrated starting at 4.4 mM, 10-point titration in 1:3 dilution.\n(§5) 3. Add 5 μL 6× agonist (final aldosterone concentration should be about 0.3 nM to about 1.0 nM) to all wells (using the PlateMate Plus.)\n(§6) • (ThermoFisher) (except those wells in columns 23 and 24) 4. Add 5 uL of assay media to all wells in column 23 and 24. 5. Incubate 6 hrs at 37° C., 5% CO2. 6. Add 15 uL 3× DiscoveRx detection reagent to each well. 7. Incubate 1 hour at room temperature (keep plates stored in the dark). 8. Read plates on Envision (PerkinElmer) luminesence plate reader and analyze using ADA.", "values": [
      {"compound": "CCC(C(=O)NCCCl)(c1ccc(Cl)cc1)n1ccc2c(NS(C)(=O)=O)cccc21", "note": "(single isomer, unassigned) [Compound 148, N-(2-chloroethyl)-2-(4-chlorophenyl)-2-(4-(methylsulfonamido)-1H-indol-1-yl)butanamide]", "pIC50": "6.30 to 7.00"}
    ]},
    {"target": "T1, full-length human Mineralocorticoid Receptor (MR)", "assay": "human MR NH Pro assay (PathHunter Protein:Protein interaction assay), MR antagonist activity", "format": "cell-based", "conditions": "PathHunter CHO-K1 cells overexpressing human MR; aldosterone about 0.3 nM; 6 hours at 37° C.; luminescence; read-out: Primary Assay IP rating (IP = inflection point for a given dose-response titration curve)", "text": "as §1, §2, §3, §4, §5, §6", "values": [
      {"compound": "CCC(CC#N)(c1ccc(C(F)(F)F)cc1)n1ccc2c(NS(C)(=O)=O)cccc21", "note": "(centres unmarked) [Compound 126, N-(1-(1-cyano-2-(4-(trifluoromethyl)phenyl)butan-2-yl)-1H-indol-4-yl)methanesulfonamide]", "pIC50": "> 7.00"},
      {"compound": "CC[C@](C(=O)NCc1ccccc1)(c1ccc(Cl)cc1)n1ccc2c(NS(C)(=O)=O)cccc21", "note": "[Compound 43, (R)—N-benzyl-2-(4-chlorophenyl)-2-{4-[(methylsulfonyl)amino]-1H-indol-1-yl}butanamide]", "pIC50": "5.30 to 6.30"},
      {"compound": "C=CCC(C(=O)OC)(c1ccc(Cl)cc1)n1ccc2c(NS(C)(=O)=O)cccc21", "note": "(centres unmarked) [Compound 33, Methyl 2-(4-chlorophenyl)-2-{4-[(methylsulfonyl)amino]-1H-indol-1-yl}pent-4-enoate]", "pIC50": "6.30 to 7.00"},
      {"compound": "CC[C@@](c1ccc(Cl)cc1)(c1nnc(C(F)(F)F)[nH]1)n1ccc2c(NS(C)(=O)=O)cccc21", "note": "[Compound 66, (R)—N-(1-{1-(4-chlorophenyl)-1-[5-(trifluoromethyl)-4H-1,2,4-triazol-3-yl]propyl}-1H-indol-4-yl)methanesulfonamide]", "pIC50": "6.30 to 7.00"},
      {"compound": "CCC(c1ccc(Cl)cc1)(n1ccc2c(NS(C)(=O)=O)cc(F)cc21)C(C)(C)O", "note": "(single isomer, unassigned) [Compound 90, N-(1-(3-(4-chlorophenyl)-2-hydroxy-2-methylpentan-3-yl)-6-fluoro-1H-indol-4-yl)methane sulfonamide]", "pIC50": "> 7.00"},
      {"compound": "CCC(C(C)=O)(c1ccc(Cl)cc1)n1ccc2c(NS(C)(=O)=O)cc(F)cc21", "note": "(centres unmarked) [Compound 98, N-(1-(3-(4-chlorophenyl)-2-oxopentan-3-yl)-6-fluoro-1H-indol-4-yl)methanesulfonamide]", "pIC50": "> 7.00"},
      {"compound": "COC(=O)CC(C(=O)OC)(c1ccc(Cl)cc1)n1ccc2c(NS(C)(=O)=O)cccc21", "note": "(centres unmarked) [Compound 35, Dimethyl 2-(4-chlorophenyl)-2-{4-[(methylsulfonyl)amino]-1H-indol-1-yl}butanedioate]", "pIC50": "> 7.00"},
      {"compound": "CCC(C(=O)NCC#N)(c1ccc(Cl)cc1)n1ccc2c(NS(C)(=O)=O)cccc21", "note": "(centres unmarked) [Compound 149, 2-(4-chlorophenyl)-N-(cyanomethyl)-2-(4-(methylsulfonamido)-1H-indol-1-yl)butanamide]", "pIC50": "> 7.00"},
      {"compound": "CCC(/C=C/C#N)(c1ccc(Cl)cc1)n1ncc2c(N)cc(F)cc21", "note": "(centres unmarked) [Compound 134, (E)-4-(4-amino-6-fluoro-1H-indazol-1-yl)-4-(4-chlorophenyl)hex-2-enenitrile]", "pIC50": "6.30 to 7.00"},
      {"compound": "CCC(C(C)=O)(c1ccc(Cl)cc1)n1ncc2c(NS(=O)(=O)NC)cccc21", "note": "(centres unmarked) [Compound 105]", "pIC50": "> 7.00"},
      {"compound": "CCC(CCC(=O)OC)(c1ccc(Cl)cc1)n1ccc2c(NS(C)(=O)=O)cccc21", "note": "(centres unmarked) [Compound 167, Methyl 4-(4-chlorophenyl)-4-(4-(methylsulfonamido)-1H-indol-1-yl)hexanoate]", "pIC50": "> 7.00"},
      {"compound": "CCC(CCC(F)(F)F)(c1ccc(Cl)cc1)n1ccc2c(NS(C)(=O)=O)cccc21", "note": "(single isomer, unassigned) [Compound 180, N-(1-(3-(4-chlorophenyl)-6,6,6-trifluorohexan-3-yl)-1H-indol-4-yl)methane sulfonamide]", "pIC50": "> 7.00"},
      {"compound": "CS(=O)(=O)Nc1cccc2c1ccn2C(CC#N)(C(=O)NCc1ccccc1)c1ccc(Cl)cc1", "note": "(centres unmarked) [Compound 54, N-benzyl-2-(4-chlorophenyl)-3-cyano-2-{4-[(methylsulfonyl)amino]-1H-indol-1-yl}propanamide]", "pIC50": "6.30 to 7.00"},
      {"compound": "CS(=O)(=O)Nc1cccc2c1ccn2C(c1ccc(Cl)cc1)c1nc(-c2ccccc2)no1", "note": "(centres unmarked) [Compound 63, N-{1-[(4-chlorophenyl)(3-phenyl-1,2,4-oxadiazol-5-yl)methyl]-1H-indol-4-yl}methanesulfonamide]", "pIC50": "5.30 to 6.30"},
      {"compound": "CCC(CCC#N)(c1ccc(Cl)cc1)n1ncc2c(NS(C)(=O)=O)cccc21", "note": "(single isomer, unassigned) [Compound 137, N-(1-(3-(4-chlorophenyl)-1-cyanopentan-3-yl)-1H-indazol-4-yl)methanesulfonamide]", "pIC50": "6.30 to 7.00"},
      {"compound": "CCC(C(=O)NCCc1ccccc1)(c1ccc(Cl)cc1)n1ccc2c(NS(C)(=O)=O)cccc21", "note": "(centres unmarked) [Compound 50, 2-(4-chlorophenyl)-2-{4-[(methylsulfonyl)amino]-1H-indol-1-yl}-N-(2-phenylethyl)butanamide]", "pIC50": "5.30 to 6.30"},
      {"compound": "CCC(CO)(c1ccc(Cl)cc1)n1ccc2c(NS(C)(=O)=O)cc(F)cc21", "note": "(centres unmarked) [Compound 85, N-(1-(2-(4-chlorophenyl)-1-hydroxybutan-2-yl)-6-fluoro-1H-indol-4-yl)methanesulfonamide]", "pIC50": "6.30 to 7.00"},
      {"compound": "CCC(c1ccc(Cl)cc1)(C(C)O)n1ncc2c(NS(C)(=O)=O)cccc21", "note": "(single isomer, unassigned) [Compound 106]", "pIC50": "> 7.00"},
      {"compound": "CCC(c1ccc(Cl)cc1)(c1nc(-c2ccccc2)co1)n1ccc2c(NS(C)(=O)=O)cccc21", "note": "(centres unmarked) [Compound 77, N-{1-[1-(4-chlorophenyl)-1-(4-phenyl-1,3-oxazol-2-yl)propyl]-1H-indol-4-yl}methanesulfonamide]", "pIC50": "5.30 to 6.30"},
      {"compound": "CCC(CO)(c1ccc(Cl)cc1Cl)n1ccc2c(NS(C)(=O)=O)cccc21", "note": "(centres unmarked) [Compound 87, N-(1-(2-(2,4-dichlorophenyl)-1-hydroxybutan-2-yl)-1H-indol-4-yl)methane sulfonamide]", "pIC50": "6.30 to 7.00"},
      {"compound": "CCC(c1ccc(C(F)(F)F)cc1)(C(C)O)n1ncc2c(NS(C)(=O)=O)cccc21", "note": "(single isomer, unassigned) [Compound 115, N-(1-(2-hydroxy-3-(4-(trifluoromethyl)phenyl)pentan-3-yl)-1H-indazol-4-yl)methanesulfonamide]", "pIC50": "> 7.00"},
      {"compound": "CCC(COC)(c1ccc(Cl)cc1)n1ncc2c(NS(C)(=O)=O)cccc21", "note": "(single isomer, unassigned) [Compound 97, N-(1-(2-(4-chlorophenyl)-1-methoxybutan-2-yl)-1H-indazol-4-yl)methanesulfonamide]", "pIC50": "> 7.00"},
      {"compound": "CCC(c1ccc(Cl)cc1)(c1nnc(C(F)(F)F)o1)n1ccc2c(NS(C)(=O)=O)cccc21", "note": "(centres unmarked) [Compound 69, N-(1-{1-(4-chlorophenyl)-1-[5-(trifluoromethyl)-1,3,4-oxadiazol-2-yl]propyl}-1H-indol-4-yl)methanesulfonamide]", "pIC50": "6.30 to 7.00"},
      {"compound": "CCC(c1ccc(Cl)cc1)(n1ccc2c(NS(C)(=O)=O)cccc21)C(C)(C)O", "note": "(single isomer, unassigned) [Compound 91, N-(1-(3-(4-chlorophenyl)-2-hydroxy-2-methylpentan-3-yl)-1H-indol-4-yl)methane sulfonamide]", "pIC50": "> 7.00"},
      {"compound": "N-(6-fluoro-1-(2-hydroxy-3-(4-(trfluoromethyl)phenyl)pentan-3-yl)-1H-indazol-4-yl)methanesulfonamide [Compound 112]", "pIC50": "> 7.00"},
      {"compound": "COC(=O)C(c1ccc(Br)cc1)n1ccc2c(NS(C)(=O)=O)cccc21", "note": "(centres unmarked) [Compound 24, methyl (4-bromophenyl){4-[(methylsulfonyl)amino]-1H-indol-1-yl}acetate]", "pIC50": "5.30 to 6.30"},
      {"compound": "CCC(CCO)(c1ccc(Cl)cc1)n1ccc2c(NS(C)(=O)=O)cccc21", "note": "(single isomer, unassigned) [Compound 160, N-(1-(3-(4-Chlorophenyl)-1-hydroxypentan-3-yl)-1H-indol-4-yl)methanesulfonamide]", "pIC50": "> 7.00"},
      {"compound": "CC[C@](C(N)=O)(c1ccc(Cl)cc1)n1ccc2c(NS(C)(=O)=O)cccc21", "note": "[Compound 40, (R)-2-(4-chlorophenyl)-2-{4-[(methylsulfonyl)amino]-1H-indol-1-yl}butanamide]", "pIC50": "6.30 to 7.00"}
    ]}
  ]
}
